Data as given in patent US10689622B2, “Culture medium for proliferating stem cell, which contains sulfated compound” (AJINOMOTO CO., INC., priority 2012, dated 2020).

Key:
bFGF [1] = target: T1, bFGF (Homo sapiens, UniProt P09038); assay: Evaluation of bFGF stabilization in Lonza serum-free medium (ELISA); format: biochemical; conditions: for effectiveness ELISA: effectiveness in ELISA evaluation of mesenchymal stem cells (medium), 4° C. control ratio
T1 construct: purchased Lonza (via TAKARA BIO INC.) Ser. No. 00/190,632
T1 sequence (P09038 143-288): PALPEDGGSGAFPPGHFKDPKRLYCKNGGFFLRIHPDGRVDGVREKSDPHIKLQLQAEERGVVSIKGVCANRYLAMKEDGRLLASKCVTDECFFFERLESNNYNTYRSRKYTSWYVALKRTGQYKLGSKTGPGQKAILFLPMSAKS
Method in brief: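 Compound in PBS diluted 10-fold into serum-free medium and held sealed at 37 °C for 7 days (some sets 3 days). Remaining bFGF quantified by human bFGF sandwich ELISA against a standard curve. Controls were compound-free PBS-medium kept at 37 °C or 4 °C for the same period.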

[2] = Measurement of content level of sulfur in test compound (ICP); format: physicochemical; conditions: ICPS-8100, evaluation samples containing 0.01 wt % test compound
Excerpt: (§1) The content level of sulfur in the sulfated saccharide is generally not less than 5 wt %, preferably not less than 10 wt %, more preferably not less than 15 wt %, and the upper limit is generally not more than 40 wt %, preferably not more than 35 wt %, more preferably not more than 30 wt %. […] Here, the content level of sulfur is a proportion in wt % of sulfur derived only from the sulfate group in sulfated saccharides, which can be measured by a method known in the field (e.g., rhodizonate method, elemental analysis or luminescent spectral analysis).
as §1, with “polymer” for “saccharide”, “wt” for “wt %, preferably not more than 35 wt %, more preferably not more than 30 wt”, “in” for “derived only from”, “the” for “the sulfate group in”, “polymer,” for “saccharides,”, “such as” for “(e.g.,”
The relationship between the content level of sulfur in a test compound (sulfur content) and the cell proliferation promoting effect was examined. The sulfur content was measured using ICPS-8100 manufactured by SHIMADZU CORPORATION and analyzed using ICPS-8000 series Ver1.03. As the reference standard of sulfur, the standard for ICP-MS manufactured by Accu Standard was used. Sulfur reference standard solutions (0, 1, 10, 30, 50 ppm) were prepared, and the sulfur content of the evaluation samples containing 0.01 wt % test compound was measured by an analytical curve method.

[3] = system: Human bone marrow-derived mesenchymal stem cells; assay: Mesenchymal stem cell proliferation system (cell number by DNA quantification); conditions: growth of mesenchymal stem cell, control ratio
bFGF [4] = target: T1, bFGF; assay: Evaluation of bFGF stabilization in Essential 8 medium (ELISA); format: biochemical; conditions: 37° C. for 7 days
Method in brief: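 Test compound in PBS diluted 10-fold into serum-free medium (Essential 8 or ReproFF2), held sealed at 37° C for 7 days; remaining bFGF quantified by ELISA against a standard curve. Controls: PBS without compound diluted into each medium, held 7 days at 37° C or 4° C.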

[5] = Lonza serum-free medium, 37° C. for 7 days, test compound 25 ng/ml
[6] = Lonza serum-free medium, 37° C. for 7 days, test compound 250 ng/ml
[7] = Lonza serum-free medium, 37° C. for 7 days, test compound 25 μg/ml
[8] = Lonza serum-free medium, 37° C. for 7 days, test compound 250 μg/ml

| Substance | concentration showing a suppressive effect on a decrease in the bFGF concentration in the medium (bFGF [1]; Lonza serum-free medium, 37° C. for 3 days) | bFGF concentration relative to that of 4° C. control (ELISA) (bFGF [1]; Lonza serum-free medium, 37° C. for 3 days, test compound 25 ng/ml) | bFGF concentration relative to that of 4° C. control (ELISA) (bFGF [1]; Lonza serum-free medium, 37° C. for 3 days, test compound 250 ng/ml) | bFGF concentration relative to that of 4° C. control (ELISA) (bFGF [1]; Lonza serum-free medium, 37° C. for 3 days, test compound 25 μg/ml) | bFGF concentration relative to that of 4° C. control (ELISA) (bFGF [1]; Lonza serum-free medium, 37° C. for 3 days, test compound 250 μg/ml) | bFGF concentration relative to that of 4° C. control (ELISA) (bFGF [1]; [5]) | bFGF concentration relative to that of 4° C. control (ELISA) (bFGF [1]; [6]) | bFGF concentration relative to that of 4° C. control (ELISA) (bFGF [1]; [7]) | bFGF concentration relative to that of 4° C. control (ELISA) (bFGF [1]; [8]) | effectiveness ELISA (bFGF [1]) | sulfur content Found (inorganic analysis) [2] | effectiveness cells [3] | concentration showing a suppressive effect on a decrease in the bFGF concentration of the medium (bFGF [4]) | bFGF concentration relative to that of 4° C. control (ELISA) (bFGF [4]; test compound 250 pg/ml) | bFGF concentration relative to that of 4° C. control (ELISA) (bFGF [4]; test compound 25 ng/ml) | bFGF concentration relative to that of 4° C. control (ELISA) (bFGF [4]; test compound 250 ng/ml) | bFGF concentration relative to that of 4° C. control (ELISA) (bFGF [4]; test compound 25 μg/ml) | bFGF concentration relative to that of 4° C. control (ELISA) (bFGF [4]; test compound 250 μg/ml) | concentration at which a decrease in the protein amount of FGF is not suppressed (bFGF [1]; as shown in the Examples (methods of Examples I-1 and II-1)) |
| --- | --- | --- | --- | --- | --- | --- | --- | --- | --- | --- | --- | --- | --- | --- | --- | --- | --- | --- | --- |
| erythritol SO3Na | not less than 25 μg/ml | x (bFGF concentration was less than 10% relative to that of 4 °C control) | x (bFGF concentration was less than 10% relative to that of 4 °C control) | ++ (bFGF concentration was not less than 50% and less than 70% relative to that of 4 °C control) | +++ (bFGF concentration was not less than 70% relative to that of 4 °C control) | x (bFGF concentration was less than 10% relative to that of 4 °C control) | x (bFGF concentration was less than 10% relative to that of 4 °C control) | x (bFGF concentration was less than 10% relative to that of 4 °C control) | + (bFGF concentration was not less than 30% and less than 50% relative to that of 4 °C control) | + (+ 30%<) | 16 wt % | ◯ (◯ not leas than 100%) | not less than 25 μg/ml | x (bFGF concentration was less than 10% relative to that of 4 °C control) | x (bFGF concentration was less than 10% relative to that of 4 °C control) | x (bFGF concentration was less than 10% relative to that of 4 °C control) | + (bFGF concentration was not less than 30% and less than 50% relative to that of 4 °C control) | +++ (bFGF concentration was not less than 70% relative to that of 4 °C control) | – |
| gluconolactone-SO3Na | – | – | – | – | – | x (bFGF concentration was less than 10% relative to that of 4 °C control) | x (bFGF concentration was less than 10% relative to that of 4 °C control) | ++ (bFGF concentration was not less than 50% and less than 70% relative to that of 4 °C control) | x (bFGF concentration was less than 10% relative to that of 4 °C control) | ++ (++ 50%<) | 14 wt % | ◯ (◯ not leas than 100%) | not less than 25 μg/ml | x (bFGF concentration was less than 10% relative to that of 4 °C control) | x (bFGF concentration was less than 10% relative to that of 4 °C control) | x (bFGF concentration was less than 10% relative to that of 4 °C control) | ++ (bFGF concentration was not less than 50% and less than 70% relative to that of 4 °C control) | +++ (bFGF concentration was not less than 70% relative to that of 4 °C control) | not more than 2.5 μg/ml |
| mannitol SO3Na | – | – | – | – | – | + (bFGF concentration was not less than 30% and less than 50% relative to that of 4 °C control) | − (bFGF concentration was not less than 10% and less than 30% relative to that of 4 °C control) | + (bFGF concentration was not less than 30% and less than 50% relative to that of 4 °C control) | ++ (bFGF concentration was not less than 50% and less than 70% relative to that of 4 °C control) | ++ (++ 50%<) | 17 wt % | ◯ (◯ not leas than 100%) | not less than 2.5 μg/ml | x (bFGF concentration was less than 10% relative to that of 4 °C control) | x (bFGF concentration was less than 10% relative to that of 4 °C control) | x (bFGF concentration was less than 10% relative to that of 4 °C control) | +++ (bFGF concentration was not less than 70% relative to that of 4 °C control) | +++ (bFGF concentration was not less than 70% relative to that of 4 °C control) | – |
